Data from the NIST ThermoML archive (doi:10.1016/j.jct.2014.05.016).

Assay: xn = mol fraction of the nth substance listed
Conditions: 100 kPa, Liquid; for viscosity: Concentric cylinders viscometry; for mass density: Vibrating tube method

CCCC[n+]1ccccc1.F[B-](F)(F)F [1-butylpyridinium tetrafluoroborate] + CCCCn1cc[n+](C)c1.F[B-](F)(F)F
Conditions	mass density [kg/m3]	viscosity [mPa·s]
293.15 K, x2 = 0	1216.6	228.9
293.15 K, x2 = 0.1007	1215.4	–
293.15 K, x2 = 0.1009	–	219.4
293.15 K, x2 = 0.2004	1214.3	–
293.15 K, x2 = 0.2005	–	209.3
293.15 K, x2 = 0.3001	1213.1	–
293.15 K, x2 = 0.3003	–	199.5
293.15 K, x2 = 0.4001	–	190
293.15 K, x2 = 0.4004	1211.7	–
293.15 K, x2 = 0.4999	–	180.9
293.15 K, x2 = 0.5009	1210.6	–
293.15 K, x2 = 0.6004	1209.4	–
293.15 K, x2 = 0.6007	–	172.5
293.15 K, x2 = 0.7004	–	163.9
293.15 K, x2 = 0.7013	1208.1	–
293.15 K, x2 = 0.8001	–	156.9
293.15 K, x2 = 0.8007	1206.7	–
293.15 K, x2 = 0.8987	1205.5	–
293.15 K, x2 = 0.8998	–	148.7
298.15 K, x2 = 0	1213.1	166.9
298.15 K, x2 = 0.1007	1211.9	–
298.15 K, x2 = 0.1009	–	160.8
298.15 K, x2 = 0.2004	1210.8	–
298.15 K, x2 = 0.2005	–	153.7
298.15 K, x2 = 0.3001	1209.6	–
298.15 K, x2 = 0.3003	–	147.1
298.15 K, x2 = 0.4001	–	140.8
298.15 K, x2 = 0.4004	1208.2	–
298.15 K, x2 = 0.4999	–	134.6
298.15 K, x2 = 0.5009	1207.1	–
298.15 K, x2 = 0.6004	1205.8	–
298.15 K, x2 = 0.6007	–	128.8
298.15 K, x2 = 0.7004	–	123.1
298.15 K, x2 = 0.7013	1204.5	–
298.15 K, x2 = 0.8001	–	117.9
298.15 K, x2 = 0.8007	1203.1	–
298.15 K, x2 = 0.8987	1202	–
298.15 K, x2 = 0.8998	–	112.7
303.15 K, x2 = 0	1209.6	124.5
303.15 K, x2 = 0.1007	1208.4	–
303.15 K, x2 = 0.1009	–	120.4
303.15 K, x2 = 0.2004	1207.3	–
303.15 K, x2 = 0.2005	–	115.6
303.15 K, x2 = 0.3001	1206.1	–
303.15 K, x2 = 0.3003	–	111.1
303.15 K, x2 = 0.4001	–	106.9
303.15 K, x2 = 0.4004	1204.7	–
303.15 K, x2 = 0.4999	–	102.5
303.15 K, x2 = 0.5009	1203.6	–
303.15 K, x2 = 0.6004	1202.3	–
303.15 K, x2 = 0.6007	–	98.69
303.15 K, x2 = 0.7004	–	94.64
303.15 K, x2 = 0.7013	1201	–
303.15 K, x2 = 0.8001	–	90.99
303.15 K, x2 = 0.8007	1199.6	–
303.15 K, x2 = 0.8987	1198.4	–
303.15 K, x2 = 0.8998	–	87.26
308.15 K, x2 = 0	1206.2	94.97
308.15 K, x2 = 0.1007	1204.9	–
308.15 K, x2 = 0.1009	–	92.11
308.15 K, x2 = 0.2004	1203.8	–
308.15 K, x2 = 0.2005	–	88.99
308.15 K, x2 = 0.3001	1202.6	–
308.15 K, x2 = 0.3003	–	85.73
308.15 K, x2 = 0.4001	–	82.59
308.15 K, x2 = 0.4004	1201.2	–
308.15 K, x2 = 0.4999	–	79.65
308.15 K, x2 = 0.5009	1200.1	–
308.15 K, x2 = 0.6004	1198.8	–
308.15 K, x2 = 0.6007	–	76.79
308.15 K, x2 = 0.7004	–	73.92
308.15 K, x2 = 0.7013	1197.5	–
308.15 K, x2 = 0.8001	–	71.3
308.15 K, x2 = 0.8007	1196.1	–
308.15 K, x2 = 0.8987	1194.9	–
308.15 K, x2 = 0.8998	–	68.74
313.15 K, x2 = 0	1202.8	73.94
313.15 K, x2 = 0.1007	1201.5	–
313.15 K, x2 = 0.1009	–	71.92
313.15 K, x2 = 0.2004	1200.4	–
313.15 K, x2 = 0.2005	–	69.59
313.15 K, x2 = 0.3001	1199.2	–
313.15 K, x2 = 0.3003	–	67.3
313.15 K, x2 = 0.4001	–	65.09
313.15 K, x2 = 0.4004	1197.8	–
313.15 K, x2 = 0.4999	–	62.92
313.15 K, x2 = 0.5009	1196.6	–
313.15 K, x2 = 0.6004	1195.3	–
313.15 K, x2 = 0.6007	–	61
313.15 K, x2 = 0.7004	–	58.91
313.15 K, x2 = 0.7013	1193.9	–
313.15 K, x2 = 0.8001	–	56.91
313.15 K, x2 = 0.8007	1192.6	–
313.15 K, x2 = 0.8987	1191.4	–
313.15 K, x2 = 0.8998	–	54.99
318.15 K, x2 = 0	–	58.64
318.15 K, x2 = 0.1009	–	57.19
318.15 K, x2 = 0.2005	–	55.49
318.15 K, x2 = 0.3003	–	53.81
318.15 K, x2 = 0.4001	–	52.19
318.15 K, x2 = 0.4999	–	50.59
318.15 K, x2 = 0.6007	–	49.12
318.15 K, x2 = 0.7004	–	47.51
318.15 K, x2 = 0.8001	–	46.14
318.15 K, x2 = 0.8998	–	44.72
